Source: ChEMBL document CHEMBL1201862, “PubChem BioAssay data set” (2004)
Calls of active or inactive are those of the source.

What was measured:
[1] = target: Glyceraldehyde-3-phosphate dehydrogenase (Homo sapiens, UniProt P04406)
[2] = target: T1, Alkaline phosphatase, tissue-nonspecific isozyme (Homo sapiens, UniProt P05186); experiment: potency against alkaline phosphatase TNAP – biochemical, luminescent, dose response, SAR follow-up (AID 1056)
T1 sequence (P05186 whole entry): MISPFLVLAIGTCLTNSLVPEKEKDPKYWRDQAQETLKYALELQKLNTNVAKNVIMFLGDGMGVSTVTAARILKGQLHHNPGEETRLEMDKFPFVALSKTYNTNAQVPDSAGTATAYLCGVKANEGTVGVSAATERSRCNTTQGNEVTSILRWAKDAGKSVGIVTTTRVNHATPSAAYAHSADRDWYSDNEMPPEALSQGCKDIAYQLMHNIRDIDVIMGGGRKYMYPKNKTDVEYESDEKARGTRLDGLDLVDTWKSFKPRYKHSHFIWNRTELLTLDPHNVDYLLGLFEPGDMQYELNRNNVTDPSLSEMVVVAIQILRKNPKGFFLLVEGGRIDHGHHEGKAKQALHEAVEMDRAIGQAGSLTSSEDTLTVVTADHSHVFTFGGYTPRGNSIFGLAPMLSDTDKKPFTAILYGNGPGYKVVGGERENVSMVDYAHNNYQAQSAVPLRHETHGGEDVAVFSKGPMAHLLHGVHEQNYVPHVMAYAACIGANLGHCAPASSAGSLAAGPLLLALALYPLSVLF

[3] = Trypanosoma cruzi growth suppression in host cells – NIH3T3 host cells, beta-gal luminescence, confirmation (AID 2044); type: functional, cell-based;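 note: intracellular parasites grown in NIH/3T3 mouse fibroblasts as host cells; luminescent beta-galactosidase reporter signal from transgenic T. cruzi replicating inside host cells; inhibitors lower the luminescence signal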
[4] = NIH3T3 cell viability loss – ATP luminescence, mouse fibroblasts, counter-screen, dose response (AID 2010); type: functional, cell-based;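 note: cells exposed to compound for about 90 hours before reading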
Coagulation factor XII = Coagulation factor XII (Homo sapiens, UniProt P00748); type: functional;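 note: activated factor XIIa alpha cleaving a fluorogenic AMC peptide substrate; inhibitor potency from loss of enzyme activity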
Chain of Coagulation factor XII (P00748 20-372 limits assumed): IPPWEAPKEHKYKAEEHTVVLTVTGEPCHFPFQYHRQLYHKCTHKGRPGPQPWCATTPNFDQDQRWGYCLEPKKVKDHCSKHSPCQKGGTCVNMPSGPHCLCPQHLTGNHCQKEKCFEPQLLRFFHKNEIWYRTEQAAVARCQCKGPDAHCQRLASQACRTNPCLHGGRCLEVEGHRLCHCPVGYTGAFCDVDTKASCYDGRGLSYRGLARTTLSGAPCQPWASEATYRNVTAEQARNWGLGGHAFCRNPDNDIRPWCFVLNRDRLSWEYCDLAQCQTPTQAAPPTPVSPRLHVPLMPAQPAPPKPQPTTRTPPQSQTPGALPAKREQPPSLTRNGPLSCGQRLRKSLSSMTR
Chain of Coagulation factor XII (P00748 373-615 limits assumed): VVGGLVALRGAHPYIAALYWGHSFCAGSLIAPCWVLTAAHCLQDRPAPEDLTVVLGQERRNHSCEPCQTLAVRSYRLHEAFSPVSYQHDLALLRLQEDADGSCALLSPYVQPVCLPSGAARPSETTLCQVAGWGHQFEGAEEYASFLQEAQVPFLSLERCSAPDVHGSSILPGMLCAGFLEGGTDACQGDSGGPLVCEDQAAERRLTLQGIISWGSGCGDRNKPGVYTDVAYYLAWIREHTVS

[5] = target: Induced myeloid leukemia cell differentiation protein Mcl-1 (Homo sapiens, UniProt Q07820); type: functional
Chain of Induced myeloid leukemia cell differentiation protein Mcl-1 (Q07820 whole entry): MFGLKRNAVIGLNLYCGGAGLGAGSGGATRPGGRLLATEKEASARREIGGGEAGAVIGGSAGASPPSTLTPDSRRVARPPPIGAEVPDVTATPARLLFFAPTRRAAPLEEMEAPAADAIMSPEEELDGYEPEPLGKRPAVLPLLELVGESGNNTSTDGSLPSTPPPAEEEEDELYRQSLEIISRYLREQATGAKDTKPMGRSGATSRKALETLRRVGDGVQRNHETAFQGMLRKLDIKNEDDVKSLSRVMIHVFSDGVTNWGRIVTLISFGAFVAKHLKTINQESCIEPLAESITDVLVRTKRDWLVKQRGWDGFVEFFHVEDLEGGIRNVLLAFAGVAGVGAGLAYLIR

[6] = target: Glucose-6-phosphate 1-dehydrogenase (Homo sapiens, UniProt P11413); experiment: inhibition of Homo sapiens G6PD, dose series – biochemical, fluorescence, selectivity assay for P. falciparum G6PD inhibitor project, dose response (AID 504792); type: functional
Chain of Glucose-6-phosphate 1-dehydrogenase (P11413 whole entry): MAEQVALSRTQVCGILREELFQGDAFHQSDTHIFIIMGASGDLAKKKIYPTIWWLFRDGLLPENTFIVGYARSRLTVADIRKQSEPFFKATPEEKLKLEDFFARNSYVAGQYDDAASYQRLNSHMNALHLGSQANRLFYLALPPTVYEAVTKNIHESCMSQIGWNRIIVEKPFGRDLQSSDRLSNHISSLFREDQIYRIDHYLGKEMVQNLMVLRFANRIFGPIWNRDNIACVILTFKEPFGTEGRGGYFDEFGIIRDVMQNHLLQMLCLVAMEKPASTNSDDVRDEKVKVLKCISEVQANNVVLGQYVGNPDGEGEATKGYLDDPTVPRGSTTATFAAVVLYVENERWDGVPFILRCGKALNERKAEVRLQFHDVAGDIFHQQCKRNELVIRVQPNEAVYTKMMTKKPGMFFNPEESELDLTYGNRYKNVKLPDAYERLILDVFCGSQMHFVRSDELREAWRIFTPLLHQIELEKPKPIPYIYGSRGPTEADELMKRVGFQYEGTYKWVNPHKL

Hexokinase HKDC1 = target: T2, Hexokinase HKDC1 (Homo sapiens, UniProt Q2TB90); experiment: inhibition of HKDC1 glucose phosphorylation – biochemical, W721R variant, dose response (AID 504729); type: functional
T2 sequence (Q2TB90 whole entry): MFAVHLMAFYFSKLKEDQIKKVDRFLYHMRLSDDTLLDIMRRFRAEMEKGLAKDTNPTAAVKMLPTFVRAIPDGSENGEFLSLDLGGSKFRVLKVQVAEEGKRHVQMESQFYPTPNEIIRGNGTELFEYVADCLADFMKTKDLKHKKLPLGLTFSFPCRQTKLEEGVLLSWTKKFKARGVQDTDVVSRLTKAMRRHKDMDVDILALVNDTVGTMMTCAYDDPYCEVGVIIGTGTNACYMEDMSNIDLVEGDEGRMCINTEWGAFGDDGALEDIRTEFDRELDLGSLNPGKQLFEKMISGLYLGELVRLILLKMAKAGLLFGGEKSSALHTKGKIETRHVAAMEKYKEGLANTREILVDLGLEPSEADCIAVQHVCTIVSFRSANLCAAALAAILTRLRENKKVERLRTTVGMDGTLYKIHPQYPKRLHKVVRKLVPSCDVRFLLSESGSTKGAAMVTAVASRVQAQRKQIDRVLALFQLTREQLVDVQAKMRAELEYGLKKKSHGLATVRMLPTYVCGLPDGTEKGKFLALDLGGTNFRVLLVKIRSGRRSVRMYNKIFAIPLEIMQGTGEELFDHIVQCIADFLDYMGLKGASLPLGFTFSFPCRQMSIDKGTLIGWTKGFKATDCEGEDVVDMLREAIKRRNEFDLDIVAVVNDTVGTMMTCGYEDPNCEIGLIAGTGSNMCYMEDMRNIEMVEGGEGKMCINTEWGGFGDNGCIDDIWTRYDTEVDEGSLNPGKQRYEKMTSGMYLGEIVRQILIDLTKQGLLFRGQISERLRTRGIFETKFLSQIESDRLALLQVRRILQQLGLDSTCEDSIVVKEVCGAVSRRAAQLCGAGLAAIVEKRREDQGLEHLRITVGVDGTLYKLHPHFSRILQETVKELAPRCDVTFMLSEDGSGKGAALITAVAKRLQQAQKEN

[7] = target: T3, Replicative DNA helicase DnaB (Mycobacterium tuberculosis, UniProt P9WMR3); experiment: DnaB intein splicing inhibitors, dose response, biochemical, cell-free fluorescence (AID 449749); type: functional
T3 sequence (P9WMR3 whole entry): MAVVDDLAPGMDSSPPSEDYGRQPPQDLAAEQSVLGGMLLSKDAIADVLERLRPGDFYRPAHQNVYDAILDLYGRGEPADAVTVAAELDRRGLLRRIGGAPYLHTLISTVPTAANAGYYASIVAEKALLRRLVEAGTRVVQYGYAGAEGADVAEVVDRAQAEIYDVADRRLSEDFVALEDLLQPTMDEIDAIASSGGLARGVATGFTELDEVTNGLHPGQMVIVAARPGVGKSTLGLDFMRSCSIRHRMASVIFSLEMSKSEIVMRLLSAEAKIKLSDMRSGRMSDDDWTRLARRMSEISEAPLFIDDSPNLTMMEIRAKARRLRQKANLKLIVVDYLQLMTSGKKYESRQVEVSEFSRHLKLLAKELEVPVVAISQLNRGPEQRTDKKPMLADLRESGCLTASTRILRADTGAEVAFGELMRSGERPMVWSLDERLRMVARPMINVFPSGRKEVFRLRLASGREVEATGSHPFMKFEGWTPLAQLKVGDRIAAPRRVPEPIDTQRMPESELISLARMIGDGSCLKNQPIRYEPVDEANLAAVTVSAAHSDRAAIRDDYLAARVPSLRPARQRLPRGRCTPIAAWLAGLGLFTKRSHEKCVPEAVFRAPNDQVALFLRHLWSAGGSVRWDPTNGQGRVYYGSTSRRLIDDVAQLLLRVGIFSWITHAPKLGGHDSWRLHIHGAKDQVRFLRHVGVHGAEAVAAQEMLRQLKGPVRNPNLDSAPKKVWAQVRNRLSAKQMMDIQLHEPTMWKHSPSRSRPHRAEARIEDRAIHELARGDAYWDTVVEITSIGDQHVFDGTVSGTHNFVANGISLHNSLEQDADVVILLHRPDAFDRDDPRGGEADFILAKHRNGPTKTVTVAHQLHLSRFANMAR

Protein RecA = target: T4, Protein RecA (Mycobacterium tuberculosis, UniProt P9WHJ3); experiment: Fluorescence Cell-Free Homogeneous Dose Retest to Identify Inhibitors of RecA-Intein Splicing Activity. [Related pubchem assays (depositor defined):AID2097, AID2223, AID489010, AID492950]; type: functional
T4 sequence (P9WHJ3 whole entry): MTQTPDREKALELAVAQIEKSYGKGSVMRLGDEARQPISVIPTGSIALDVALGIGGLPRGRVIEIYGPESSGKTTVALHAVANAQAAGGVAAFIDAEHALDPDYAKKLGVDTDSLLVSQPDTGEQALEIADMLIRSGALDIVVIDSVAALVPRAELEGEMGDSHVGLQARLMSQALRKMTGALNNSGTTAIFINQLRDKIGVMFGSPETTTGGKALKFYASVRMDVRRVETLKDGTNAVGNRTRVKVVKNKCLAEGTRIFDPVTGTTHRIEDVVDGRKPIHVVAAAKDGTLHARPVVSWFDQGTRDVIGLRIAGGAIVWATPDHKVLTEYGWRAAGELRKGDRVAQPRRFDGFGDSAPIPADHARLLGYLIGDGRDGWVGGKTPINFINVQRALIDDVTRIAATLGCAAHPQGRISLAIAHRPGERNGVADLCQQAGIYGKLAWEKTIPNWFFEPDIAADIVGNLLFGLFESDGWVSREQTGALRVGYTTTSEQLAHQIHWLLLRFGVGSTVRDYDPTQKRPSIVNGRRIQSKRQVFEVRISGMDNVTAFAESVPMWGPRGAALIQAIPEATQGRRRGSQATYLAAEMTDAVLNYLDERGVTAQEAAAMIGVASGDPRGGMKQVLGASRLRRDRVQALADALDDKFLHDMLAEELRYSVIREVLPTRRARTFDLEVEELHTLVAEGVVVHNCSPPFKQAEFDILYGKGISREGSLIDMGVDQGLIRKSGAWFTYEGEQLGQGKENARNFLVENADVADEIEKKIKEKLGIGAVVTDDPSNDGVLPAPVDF

Genome polyprotein = Genome polyprotein (dengue virus type 2, UniProt P29990); experiment: flavivirus cap methylation enzyme inhibition – biochemical, confirmation dose response, primary screen (AID 588689); type: functional
Chain of Genome polyprotein (P29990 2492-3391 limits assumed): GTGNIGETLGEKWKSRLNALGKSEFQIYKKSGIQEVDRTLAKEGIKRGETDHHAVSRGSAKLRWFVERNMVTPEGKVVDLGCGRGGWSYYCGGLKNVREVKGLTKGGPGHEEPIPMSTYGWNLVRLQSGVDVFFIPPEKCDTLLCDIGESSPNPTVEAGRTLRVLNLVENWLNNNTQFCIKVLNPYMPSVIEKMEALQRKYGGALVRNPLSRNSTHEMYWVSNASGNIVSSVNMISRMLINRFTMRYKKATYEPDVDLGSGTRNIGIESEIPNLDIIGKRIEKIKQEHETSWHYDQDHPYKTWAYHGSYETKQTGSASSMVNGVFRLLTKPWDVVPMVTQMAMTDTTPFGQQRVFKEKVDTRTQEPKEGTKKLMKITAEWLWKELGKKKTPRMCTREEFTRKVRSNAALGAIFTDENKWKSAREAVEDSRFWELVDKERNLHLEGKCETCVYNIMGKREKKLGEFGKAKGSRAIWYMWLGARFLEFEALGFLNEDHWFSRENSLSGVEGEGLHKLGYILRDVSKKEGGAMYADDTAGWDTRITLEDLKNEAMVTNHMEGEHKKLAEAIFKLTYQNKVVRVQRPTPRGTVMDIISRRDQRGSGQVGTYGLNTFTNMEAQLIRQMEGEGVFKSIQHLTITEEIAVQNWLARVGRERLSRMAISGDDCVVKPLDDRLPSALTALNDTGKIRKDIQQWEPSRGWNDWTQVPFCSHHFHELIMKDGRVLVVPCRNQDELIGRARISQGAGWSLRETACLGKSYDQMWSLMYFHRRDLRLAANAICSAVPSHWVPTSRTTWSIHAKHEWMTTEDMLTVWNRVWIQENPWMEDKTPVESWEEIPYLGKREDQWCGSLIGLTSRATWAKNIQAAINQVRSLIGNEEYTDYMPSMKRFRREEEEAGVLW

[8] = target: DNA dC->dU-editing enzyme APOBEC-3A (Homo sapiens, UniProt P31941); experiment: A3A deaminase inhibition for selectivity – biochemical, dose response (AID 504722); type: functional
Chain of DNA dC->dU-editing enzyme APOBEC-3A (P31941 whole entry): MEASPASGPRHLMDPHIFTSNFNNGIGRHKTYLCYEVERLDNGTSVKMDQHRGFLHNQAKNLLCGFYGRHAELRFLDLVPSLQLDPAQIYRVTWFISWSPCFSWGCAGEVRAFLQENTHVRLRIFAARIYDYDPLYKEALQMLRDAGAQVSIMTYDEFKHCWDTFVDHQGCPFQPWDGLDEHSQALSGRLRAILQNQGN

[9] = target: DNA dC->dU-editing enzyme APOBEC-3G (Homo sapiens, UniProt Q9HC16); experiment: Dose Response confirmation of small molecule APOBEC3G DNA Deaminase Inhibitors via a fluorescence-based single-stranded DNA deaminase assay. [Related pubchem assays (depositor defined):AID493012, AID493028]; type: functional
Chain of DNA dC->dU-editing enzyme APOBEC-3G (Q9HC16 whole entry): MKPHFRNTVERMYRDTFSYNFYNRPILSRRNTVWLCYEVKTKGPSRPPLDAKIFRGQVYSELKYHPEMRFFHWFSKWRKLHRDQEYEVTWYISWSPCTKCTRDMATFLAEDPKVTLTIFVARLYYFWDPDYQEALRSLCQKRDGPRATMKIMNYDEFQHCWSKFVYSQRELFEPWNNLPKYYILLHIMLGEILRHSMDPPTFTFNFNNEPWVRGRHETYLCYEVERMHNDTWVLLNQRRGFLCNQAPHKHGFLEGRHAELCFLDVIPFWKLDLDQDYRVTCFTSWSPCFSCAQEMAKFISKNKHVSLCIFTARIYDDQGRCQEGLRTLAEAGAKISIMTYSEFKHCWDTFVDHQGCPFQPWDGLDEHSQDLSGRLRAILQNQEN

[10] = target: DNA damage-inducible transcript 3 protein (Mus musculus, UniProt P35639); type: functional, Cricetulus griseus
Chain of DNA damage-inducible transcript 3 protein (P35639 whole entry): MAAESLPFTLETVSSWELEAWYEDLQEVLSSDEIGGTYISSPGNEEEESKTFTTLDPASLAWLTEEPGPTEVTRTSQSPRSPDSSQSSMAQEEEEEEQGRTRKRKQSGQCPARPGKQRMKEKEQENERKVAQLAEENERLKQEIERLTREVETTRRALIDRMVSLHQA

[11] = target: Alkaline phosphatase, placental type (Homo sapiens, UniProt P05187); experiment: human placental alkaline phosphatase inhibition – biochemical, luminescence, confirmation (AID 1512); type: functional
Chain of Alkaline phosphatase, placental type (P05187 whole entry): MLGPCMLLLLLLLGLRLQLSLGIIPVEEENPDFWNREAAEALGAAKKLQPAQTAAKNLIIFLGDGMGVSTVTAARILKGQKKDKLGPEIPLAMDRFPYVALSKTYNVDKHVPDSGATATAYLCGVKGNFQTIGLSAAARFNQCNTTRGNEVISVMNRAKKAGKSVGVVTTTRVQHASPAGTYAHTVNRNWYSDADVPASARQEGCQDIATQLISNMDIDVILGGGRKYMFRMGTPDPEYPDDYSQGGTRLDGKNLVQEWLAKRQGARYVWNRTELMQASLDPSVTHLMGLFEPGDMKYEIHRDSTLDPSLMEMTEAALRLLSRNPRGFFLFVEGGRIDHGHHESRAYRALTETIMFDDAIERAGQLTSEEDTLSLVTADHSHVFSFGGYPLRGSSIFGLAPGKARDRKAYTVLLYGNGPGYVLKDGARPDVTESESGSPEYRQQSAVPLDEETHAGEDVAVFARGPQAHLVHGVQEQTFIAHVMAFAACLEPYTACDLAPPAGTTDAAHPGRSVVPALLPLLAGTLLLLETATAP

Large T antigen = Large T antigen (Simian virus 40, UniProt P03070); type: functional, Betapolyomavirus macacae;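 note: Confirmatory-stage PubChem screen for compounds that inhibit SV40 T antigen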
[12] = target: T5, Mannose-6-phosphate isomerase (Homo sapiens, UniProt P34949); experiment: phosphomannose isomerase inhibition – biochemical, fluorescence intensity, confirmation (AID 1535)
T5 sequence (P34949 whole entry): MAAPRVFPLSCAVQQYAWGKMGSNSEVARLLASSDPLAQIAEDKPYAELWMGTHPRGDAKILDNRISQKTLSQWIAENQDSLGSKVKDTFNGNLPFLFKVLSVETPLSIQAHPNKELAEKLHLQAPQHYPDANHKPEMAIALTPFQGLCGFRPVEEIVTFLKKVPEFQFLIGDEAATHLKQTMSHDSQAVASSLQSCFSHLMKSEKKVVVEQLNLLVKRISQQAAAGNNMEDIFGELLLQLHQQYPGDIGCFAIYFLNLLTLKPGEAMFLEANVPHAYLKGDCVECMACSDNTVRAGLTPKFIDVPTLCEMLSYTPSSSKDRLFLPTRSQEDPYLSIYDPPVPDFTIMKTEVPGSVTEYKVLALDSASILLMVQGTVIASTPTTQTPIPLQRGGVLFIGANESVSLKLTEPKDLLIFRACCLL

Phosphomannomutase 2 = target: T6, Phosphomannomutase 2 (Homo sapiens, UniProt O15305); experiment: Counter screen SAR assay for PMM2 inhibitors via a fluorescence intensity assay. [Related pubchem assays (depositor defined):AID1545, AID1574]
T6 sequence (O15305 whole entry): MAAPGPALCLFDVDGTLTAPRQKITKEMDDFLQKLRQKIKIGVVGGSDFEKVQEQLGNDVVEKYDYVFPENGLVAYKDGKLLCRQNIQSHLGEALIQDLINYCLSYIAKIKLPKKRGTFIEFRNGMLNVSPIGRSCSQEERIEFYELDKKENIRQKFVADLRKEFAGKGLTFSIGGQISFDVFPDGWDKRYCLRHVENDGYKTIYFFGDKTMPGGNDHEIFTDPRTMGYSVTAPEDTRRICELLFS

[13] = target: Mitochondrial peptide methionine sulfoxide reductase (Bos taurus, UniProt P54149); experiment: Absorbance-based biochemical high throughput dose response assay for activators of Methionine sulfoxide reductase A (MsrA).; type: functional
Chain of Mitochondrial peptide methionine sulfoxide reductase (P54149 whole entry): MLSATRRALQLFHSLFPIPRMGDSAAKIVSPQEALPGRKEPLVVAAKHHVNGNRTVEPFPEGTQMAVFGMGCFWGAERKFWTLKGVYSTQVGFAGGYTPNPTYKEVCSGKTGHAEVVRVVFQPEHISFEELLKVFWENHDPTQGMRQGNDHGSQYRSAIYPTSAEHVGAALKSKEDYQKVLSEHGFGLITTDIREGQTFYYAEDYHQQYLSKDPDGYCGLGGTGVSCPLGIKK

[14] = target: Neurotensin receptor type 1 (Homo sapiens, UniProt P30989); type: functional;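 note: Image-based confirmatory dose-response assay measuring agonist activity at NTR1; NTR1-expressing U2OS osteosarcoma cells imaged for beta-arrestin GFP spot formation; agonist potency where compounds increase beta-arrestin recruitment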
Chain of Neurotensin receptor type 1 (P30989 whole entry): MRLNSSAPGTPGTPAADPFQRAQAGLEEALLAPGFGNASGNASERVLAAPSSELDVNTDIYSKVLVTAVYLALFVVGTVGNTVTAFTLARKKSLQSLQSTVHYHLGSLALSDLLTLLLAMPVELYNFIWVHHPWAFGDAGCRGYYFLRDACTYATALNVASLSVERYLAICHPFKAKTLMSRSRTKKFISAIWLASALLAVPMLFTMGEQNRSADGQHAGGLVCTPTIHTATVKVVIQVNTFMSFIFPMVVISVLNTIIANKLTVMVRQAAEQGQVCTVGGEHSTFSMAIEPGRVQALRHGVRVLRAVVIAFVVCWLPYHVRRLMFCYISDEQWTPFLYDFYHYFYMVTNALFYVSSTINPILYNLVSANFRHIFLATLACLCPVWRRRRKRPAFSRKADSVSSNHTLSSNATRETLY

[15] = target: E3 ubiquitin-protein ligase Mdm2 (Homo sapiens, UniProt Q00987); experiment: MDM2-luc reporter signal enhancers, multi-concentration potency testing, MDM2 ubiquitin-protein ligase inhibitor program, whole-cell format, luminescence detection, 384-well microplate (AID 1394); type: functional;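 note: MDM2 E3 inhibitors raise luminescence so EC50 is for signal enhancement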
[16] = HEK-293T viability loss after treatment – luminescence, T-cell screen hits, cytotoxicity control for TCR NF-kB inhibitor project, dose response (AID 489026); type: functional, cell-based;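 note: cells exposed to compound about 14 hours before the viability readout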
INS1 = experiment: INS-1E survival protection against cytokine death – cell-based, luminescence, retest, dose response (AID 449756); type: functional; details: Rattus norvegicus;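 note: cell death triggered by IL-1 beta plus TNF-alpha plus IFN-gamma mixture; protective hits raise ATP signal compared with cytokine alone wells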
[17] = target: Dual specificity protein phosphatase 3 (Homo sapiens, UniProt P51452); experiment: inhibition constants for human DUSP3 – biochemical, colorimetric, SAR follow-up (AID 2004)
Chain of Dual specificity protein phosphatase 3 (P51452 whole entry): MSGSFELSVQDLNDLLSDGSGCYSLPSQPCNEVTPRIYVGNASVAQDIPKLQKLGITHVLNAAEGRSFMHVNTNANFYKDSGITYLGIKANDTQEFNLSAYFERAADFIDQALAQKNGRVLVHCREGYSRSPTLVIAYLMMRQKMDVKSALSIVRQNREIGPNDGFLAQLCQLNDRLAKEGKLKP

Chain of Glyceraldehyde-3-phosphate dehydrogenase (P04406 whole entry): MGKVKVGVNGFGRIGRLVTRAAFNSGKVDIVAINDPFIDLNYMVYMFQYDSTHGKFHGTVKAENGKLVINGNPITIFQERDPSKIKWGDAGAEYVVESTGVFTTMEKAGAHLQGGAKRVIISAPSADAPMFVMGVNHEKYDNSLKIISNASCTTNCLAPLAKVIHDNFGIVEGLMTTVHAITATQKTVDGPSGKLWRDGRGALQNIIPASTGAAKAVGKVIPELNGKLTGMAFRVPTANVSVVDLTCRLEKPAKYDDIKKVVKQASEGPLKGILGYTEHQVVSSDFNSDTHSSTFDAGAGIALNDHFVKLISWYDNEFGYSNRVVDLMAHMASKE

O=S(=O)(Nc1cnc2ccccc2c1)c1ccccc1OC(F)(F)F
IC50 [1]: > 100 µM (not active) | IC50 [2]: 16.4 µM (active)

COc1ccc(CN2CCN(C(=O)C3CCC(CNS(=O)(=O)c4ccccc4)CC3)CC2)c(OC)c1OC (stereo unspecified)
EC50 [3]: 0.503 µM (active) | EC50 [4]: > 60 µM (not active) | IC50 (Coagulation factor XII): > 50 µM (inactive)

Cc1nc(COC(=O)c2cc(O)c3ccccc3c2O)cs1
IC50 [5]: 4.84 µM (active) | IC50 [6]: > 80 µM (inactive) | IC50 (Hexokinase HKDC1): 12.1 µM (active) | AC50 [7]: 24.7 µM (active) | EC50 (Protein RecA): 5.24 µM (active) | IC50 (Genome polyprotein): 43.1 µM (active)

Sc1nncn1/N=C/c1ccc(Br)cc1
IC50 [8]: > 100 µM (inactive) | IC50 [9]: 2.72 µM (active)

Oc1ccc(/C=N/N2CCN(C3c4ccccc4-c4ccccc43)CC2)c(O)c1
Absolute IC50 (CHOP) [10]: 10 µM

COc1ccc(C(=O)NN=C(S)NC2CCCCC2)cc1OC
IC50 [11]: > 100 µM (inactive)

COc1cc(-c2n[nH]c(=S)[nH]2)cc(OC)c1OC
IC50 (Large T antigen): 8.6 µM (active) | IC50 [12]: 38.9 µM (active) | IC50 [8]: > 100 µM (inactive) | IC50 (Phosphomannomutase 2): > 100 µM (inactive) | IC50 [9]: 3.13 µM (active) | EC50 [13]: > 104 µM (inactive)

C[C@H](NC(=O)c1nc[nH]c1C(=O)Nc1cccc(Cl)c1)c1ccccc1
EC50 [14]: 24 µM (inactive)

C=C1C(=O)O[C@H]2C[C@@H](C)[C@@H]3C=CC(=O)[C@@]3(C)C[C@H]12 [AROMATICIN]
EC50 [15]: 0.59 µM (not active) | IC50 [16]: > 80 µM (inactive) | Absolute IC50 (CHOP) [10]: 10 µM | AC50 (INS1): 7.82 µM (active)

O=C(c1cc(-c2cc(F)c(Cl)cc2Cl)n[nH]1)N1CCCC1
IC50 [1]: > 100 µM (not active) | IC50 [11]: > 100 µM (inactive) | IC50 [2]: > 100 µM (inactive)

S=C(S)N(CCN(Cc1cccs1)C(=S)S)Cc1cccs1
Ki [17]: 36.3 µM (inactive)

CC1(C)c2ssc(=S)c2-c2ccccc2N1C(=O)CN1CCOCC1
Ki [17]: 40.5 µM (inactive)
